Measured values from PMC12030253, “New Temporin A Analogues Modified in Positions 1 and 10—Synthesis and Biological Studies” (Pharmaceutics, 2025).
In brackets after ≈: the same amount, converted by molar mass. Several values for one entry are separate records, joined by “and”; a condition that tells them apart may be missing. Identical values can stand only once. Like-named read-outs stand apart in the source and are kept apart here. Square brackets hold non-standard residues; d marks the D form. Ends that are not written are not given here. Peptide text beside a SMILES is read from it. Phe(4-F) = N[C@@H](Cc1ccc(F)cc1)C(=O)O

What was measured:
[1] = tested on: Bacillus subtilis NBIMCC 3562; assay type: cell-based; conditions: 30 µg/disk, positive control on the plate of the peptide
Description: (§1) In order to evaluate the antimicrobial activity, the parent peptide Temporin A and newly synthesized analogues were tested against model strains Escherichia coli NBIMCC 8785, Pseudomonas aeruginosa NBIMCC 3700, Bacillus subtilis NBIMCC 3562, Arthrobacter oxydans NBIMCC 9333, and Candida albicans NBIMCC 74. The strains were purchased from the National Bank for Industrial Microorganisms and Cell Cultures (NBIMCC, Sofia, Bulgaria). They were cultured as follows: • E. coli 8785 in Luria–Bertani (LB, HiMedia, Mumbai, India) agar medium; • B. subtilis 3562 in nutrient broth (NB, HiMedia, Mumbai, India) agar medium; • P. aeruginosa 3700 and A. oxydans 9333 in Meat Peptone agar (MPA) medium; • C. albicans 74 in Yeast Mold (YM) agar medium.
(§2) The cultivation was performed in an incubator shaker ES-20/60 (Biosan, Riga, Latvia), set for B. subtilis 3562, A. oxydans 9333, and C. albicans 74 at 30 °C, and for E. coli 8785 and P. aeruginosa 3700 at 37 °C, for 24 h with 120 rpm. The microbial cultures were then brought to a 0.5 McFarland turbidity using a Grant-bio DEN-1B densitometer (Grant Instruments, Nether Alderley, United Kingdom).
(§3) The disk diffusion method was employed as an additional technique in order to determine the percentage of inhibition of the synthesized peptides compared to a chosen antibiotic, used as a positive control. The antibiotics used were gentamicin (10 µg/disk), chloramphenicol (30 µg/disk), and itraconazole (10 µg/disk). In total, 100 μL from each microbial culture was spread on LB/NB/MPA/YM agar plates. The plates were then incubated at the appropriate temperature for a period of 30 min intended for the penetration of the culture into the agar. […] The antimicrobial activity was assessed by measuring the diameter of the inhibition zones in mm. […] In addition, the percentage of inhibition was calculated as the correlation between the inhibition zone of the peptide (measured in mm) over the inhibition zone of the antibiotic (measured in mm) multiplied by 100.

[2] = tested on: Bacillus subtilis NBIMCC 3562; design: method as in PMID 38931840; conditions: 30 µg/disk, positive control with DTA; cited from earlier work
[3] = tested on: Arthrobacter oxydans NBIMCC 9333; assay type: cell-based; conditions: 24 h
Description: as §1, §2
(§4) The broth dilution method was employed to estimate the MIC of the peptides. In total, 10 mg/mL peptide stock solutions in 10% EtOH/H2O were prepared. Microbial culture in the corresponding media and peptide solutions in a concentration range from 0 to 320 µg/mL (concentration levels: 0, 10, 20, 40, 80, 160, and 320 µg/mL) were placed in 96-well U-shaped-bottom polystyrene plates (Deltalab S.L., Barcelona, Spain). In addition, 10% EtOH/H2O control, diluted in the nutrient medium, was added in separate wells. Furthermore, the microplates were incubated under aerobic conditions at the desired temperature for 24 h. […] The absorbance was measured at 630 nm (microplate reader PKL PPC 142, Italy). In total, 10 μL solution with concentrations greater than or equal to the MIC value was placed on the corresponding solid nutrient medium in order to evaluate a potential minimum bactericidal concentration (MBC) and minimal fungicidal concentration (MFC). Furthermore, the Petri dishes were incubated for 24 h at either 30 or 37 °C. Every experiment was carried out three times.

[4] = tested on: Bacillus subtilis NBIMCC 3562; assay type: cell-based
Description: as §1, §2, §4

[5] = tested on: Pseudomonas aeruginosa NBIMCC 3700; assay type: cell-based
Description: as §1, §2, §4

[6] = tested on: MDA-MB-231 cells; assay type: cell-based, human; conditions: 72 h
Description: (§5) Mouse embryonic fibroblasts (BALB 3T3 clone A31), human breast epithelial cells (MCF-12F), luminal A breast cancer (MCF-7), and basal B-type breast cancer (MDA-MB-231) were used in in vitro experiments. Cell cultures were purchased from the American Type Cultures Collection (ATCC, Manassas, VA, USA). Cells were cultured in a growth medium (DMEM-4.5 g/L glucose), 10% FBS, and antibiotics (Sigma-Aldrich, Schnelldorf, Germany). Cells were incubated at 5% CO2, 37 °C, and 95% humidity. Plastic flasks (75 cm^2) were used for the cell culture (Biologix, Lenexa, KS, USA).
(§6) The antiproliferative activity of the peptide analogues was determined by an MTT assay. Normal epithelial cells (MCF-12F) and tumor cell lines (MCF-7 and MDA-MB-231) were used in the in vitro experiments. Cells were plated at 1 × 10^3 cells/100 µL/well in 96-well microplates. […] The optical density of the formazan was measured at λ = 540 nm using a microplate reader. Antiproliferative activities were expressed as IC50 values. The statistical analysis of the results was performed using one-way ANOVA, followed by Bonferroni’s post hoc test.

[7] = tested on: MCF-7 cells; assay type: cell-based, human; conditions: 72 h
Description: as §5, §6

[8] = tested on: MCF-12F cells; assay type: cell-based, human; conditions: for IC50: 72 h
Description: as §5
The antiproliferative activity of the peptide analogues was determined by an MTT assay. Normal epithelial cells (MCF-12F) and tumor cell lines (MCF-7 and MDA-MB-231) were used in the in vitro experiments. Cells were plated at 1 × 10^3 cells/100 µL/well in 96-well microplates. After 24 h of incubation in a thermostat under standard conditions, the cells were treated with test compounds for 72 h. The optical density of the formazan was measured at λ = 540 nm using a microplate reader. Antiproliferative activities were expressed as IC50 values. The statistical analysis of the results was performed using one-way ANOVA, followed by Bonferroni’s post hoc test.

[9] = in vitro; assay type: cell-based, Mouse; conditions: mouse
Description: as §5
(§7) The safety testing was performed according to the OECD Guidelines for the Testing of Chemicals, Section 4, Test No. 432. Mouse embryonic fibroblasts (BALB 3T3, clone A31) were used to perform the in vitro cytotoxicity and phototoxicity tests. Cells were plated at 1 × 10^4 cells per well in 96-well cell culture plates. The cells were incubated in a thermostat for 24 h before the test peptide analogues were added. […] Working concentrations (4–1000 µM) of peptides were obtained by diluting the stock solution with a culture medium. The phototoxicity test was performed using 96-well microplates. The microplates were irradiated with a dose of 2.4 J/cm^2 using a solar light simulator Helios-iO (SERIC Ltd., Tokyo, Japan). After treatment with a neutral red (NR) medium (NR dissolved in culture medium, 34 µg/mL), washing, and application of the NR Desorb solution (freshly prepared 49 parts water + 50 parts ethanol + 1 part acetic acid), the absorption was measured on a microplate reader at a wavelength of 540 nm. Cytotoxicity was expressed as CC50 values.

[10] = tested on: BALB 3T3 cells; test: in vitro; assay type: cell-based, Mouse
Description: as §5, §7

[11] = tested on: Escherichia coli NBIMCC 8785; assay type: cell-based; conditions: 10 µg/disk, positive control on the plate of the peptide
Description: as §1, §2, §3

[12] = tested on: Pseudomonas aeruginosa NBIMCC 3700; assay type: cell-based; conditions: 10 µg/disk, positive control on the plate of the peptide
Description: as §1, §2, §3

[13] = tested on: Arthrobacter oxydans NBIMCC 9333; design: method as in PMID 38931840; conditions: 10 µg/disk, positive control with DTA; cited from earlier work
[14] = tested on: Pseudomonas aeruginosa NBIMCC 3700; design: method as in PMID 38931840; conditions: 10 µg/disk, positive control with DTA; cited from earlier work
[15] = tested on: Escherichia coli NBIMCC 8785; design: method as in PMID 38931840; conditions: 10 µg/disk, positive control with DTA; cited from earlier work
[16] = tested on: Escherichia coli NBIMCC 8785; test: Broth dilution MIC, E. coli; assay type: cell-based; design: key: NI—no inhibition observed; conditions: 0-320 µg/mL, 24 h
Description: as §1, §2
(§8) The broth dilution method was employed to estimate the MIC of the peptides. In total, 10 mg/mL peptide stock solutions in 10% EtOH/H2O were prepared. […] The absorbance was measured at 630 nm (microplate reader PKL PPC 142, Italy). […]

[17] = tested on: Candida albicans NBIMCC 74; test: Broth dilution MIC, C. albicans; assay type: cell-based; design: key: NI—no inhibition observed; conditions: 0-320 µg/mL, 24 h
Description: as §1, §2, §8

[18] = broth dilution, 0-320 µg/mL, 24 h

Molecule | MIC A. oxydans 9333 [3] [µg/mL] | MIC B. subtilis 3562 ([4]; NBIMCC 3562, 24 h) [µg/mL] | MIC P. aeruginosa 3700 ([5]; NBIMCC 3700, 24 h) [µg/mL] | IC50 [6] [µM] | IC50 [7] [µM] | IC50 [8] [µM] | CC50 ([9]; Mean CC50 ± SD +Irr) [µM] | CC50 ([9]; Mean CC50 ± SD −Irr) [µM] | PIF (Photo-Irritation Factor) [10] | MIC E. coli 8785 [16] | MIC C. albicans 74 [17] | further results
O=C(N[C@H](CO)[C@H](O)c1ccc([N+](=O)[O-])cc1)C(Cl)Cl [Chloramphenicol, chloramphenicol] |  |  |  |  |  |  |  |  |  |  |  | Inhibition zone B. subtilis 3562, antibiotic control [1]: 24 mm and 27 mm and 28 mm; Inhibition zone B. subtilis 3562, antibiotic control [2]: 26 mm
CC[C@H](C)[C@H](NC(=O)CNC(=O)[C@H](CO)NC(=O)[C@H](CC(C)C)NC(=O)[C@@H](NC(=O)[C@H](CCCNC(=N)N)NC(=O)CNC(=O)[C@@H](NC(=O)[C@H](CC(C)C)NC(=O)[C@@H]1CCCN1C(=O)[C@H](CC(C)C)NC(=O)[C@@H](N)Cc1ccc(F)cc1)[C@@H](C)CC)C(C)C)C(=O)N[C@@H](CC(C)C)C(N)=O [DT4F, Phe(4F)-LPLIGRVLSGILNH2] (H-[Phe(4-F)]LPLIGRVLSGIL-NH2) | 160 (≈ 113 µM) | 80 (≈ 56.5 µM) | 80 (≈ 56.5 µM) | 32 ± 1.43 | 20.3 ± 0.6 | 41.8 ± 1.64 | 40 ± 0.78 | 55.4 ± 4.64 | 1.4 |  |  | 
CNC(C)C1CCC(N)C(OC2C(N)CC(N)C(OC3OCC(C)(O)C(NC)C3O)C2O)O1 (centres unmarked) [Gentamicin, gentamicin] |  |  |  |  |  |  |  |  |  |  |  | Inhibition zone E. coli 8785, antibiotic control [11]: 17.5 mm and 16.5 mm and 17 mm; Inhibition zone P. aeruginosa 3700, antibiotic control [12]: 17 mm and 18 mm and 16 mm; Inhibition zone A. oxydans 9333, antibiotic control [13]: 18 mm; Inhibition zone P. aeruginosa 3700, antibiotic control [14]: 17 mm; Inhibition zone E. coli 8785, antibiotic control [15]: 18 mm
YLPLIGRVLSGIL-NH2 [DTTyr1, Y-LPLIGRVLSGILNH2] | 320 | 160 | 320 | 334 ± 3.72 | 216 ± 10.3 | 318 ± 9.79 | 671 ± 12.2 | 669 ± 13.4 | 1.0 | NI ** | NI ** | 
FLPLIGRVLTGIL-NH2 [DTThr, FLPLIGRVL-T-GILNH2] | 320 | 160 | 320 | 136 ± 3.61 | 98.6 ± 1.19 | 165 ± 2.21 | 188 ± 3.55 | 183 ± 2.91 | 1.0 |  |  | 
FLPLIGRVLYGIL-NH2 [DTTyr10, FLPLIGRVL-Y-GILNH2] |  |  |  | 328.5 ± 2.62 | 64.5 ± 3.93 | 251 ± 11.8 | > 1000 | > 1000 |  | NI ** | NI ** | MIC A. oxydans 9333 ([3]; broth dilution, 0-320 µg/mL): 320 µg/mL; MIC B. subtilis 3562 [4, 18]: 320 µg/mL; MIC P. aeruginosa 3700 [5, 18]: 320 µg/mL; Antiproliferative activity in MCF-12F at a single concentration ([8]; at 64.51 µM, non-tumorigenic cells): no antiproliferative activity was observed
